US11166924B2, “N-methyl-d-aspartate receptor allosteric modulators and methods for their use” (Qingdao Primedicine Pharmaceutical Company, Ltd., priority 2016, dated 2021)

Tests used:
[1] = system: rat model of middle cerebral artery occlusion (MCAo); experiment: Cerebral ischemia (MCAo) infarct volume; format: in vivo
Excerpt: Adult male Sprague Dawley rats weighting ˜200 g were anesthetized, and the middle cerebral artery (MCA) was exposed by making a craniotomy window (2 mm in diameter) 1 mm rostral to the anterior junction of the zygoma and the squamosal bone. We used the suture ligation method to achieve three-vessel occlusion. The exposed MCA was ligated with a square knot using a 10-0 nylon suture. Next, the bilateral common carotid arteries (CCAs) were clamped with nontraumatic arterial clips. Successful surgery was confirmed by a marked drop in regional cerebral blood flow, monitored by a laser Doppler flowmeter (PF-5010, Periflux system; Perimed AB). After 90 min ischemia, the suture and clips were removed to allow instant reperfusion. Experimental rats were subdivided into groups to receive different doses of Npam43 or saline/vehicle (as indicated) via femoral vein injection. 2,3,5-Triphenyltetrazolium chloride (TTC) was used to evaluate infarct size in stained brain sections. […]
The rats were anesthetized, with body temperature maintained at 37.0±0.5° C. with a heating pad during imaging. […] The non-infarct areas were drawn manually from slice to slice and the volumes were measured with Voxtool analysis software (General Electric). The infarct size was quantified by subtracting the non-infarct volume of the ischemic hemisphere from the total volume of the contralateral hemisphere. […]

GluN1/GluN2A^P79A = biological target: T1, GluN1/GluN2A^P79A (Rattus norvegicus, UniProt P35439+Q00959, P79A); experiment: Patch clamp in HEK293 cells expressing mutant GluN1/GluN2A P79A; format: cell-based
T1 construct: expressed in transfected cells; host or cells: HEK293
Method: (§1) Whole cell patch-clamp recordings were performed under voltage-clamp mode using an Axopatch 200B or 1D patch-clamp amplifier (Molecular Devices). Whole-cell currents were recorded at a holding potential of −60 mV unless indicated elsewhere, and signals were filtered at 2 kHz, digitized at 10 kHz (Digidata 1322A). Recording pipettes (3-5 MΩ) were filled with intracellular solution containing (mM): CsCl 140, HEPES 10, Mg-ATP 4, QX-314 5, pH 7.20; osmolarity, 290-295 mOsm. BAPTA (10 mM) was added in the intracellular solution (unless otherwise specified). The coverslips were continuously superfused with extracellular solution containing (mM): NaCl 140, KCl 5.4, HEPES 10, CaCl2 1.3, glucose 20, pH 7.4; osmolarity, 305-315 mOsm. NMDA-induced currents were applied by NMDA through perfusion fast-step (Warner Instruments). With perfusion fast-step system, NMDA application was achieved by using a two-square barrel glass tubing and depending on the age of the cultured neurons, CNQX (10 μM), TTX (0.5 μM) or BIC (10 μM) were added in the extracellular solution to minimize the activation of ionotropic glutamate receptors and voltage-gated sodium channels, respectively. All experiments were performed at room temperature. Recordings from at least six HEK293 cells/neurons were performed for all active compounds. […]

GluN1^L135Q/GluN2A = biological target: T2, GluN1^L135Q/GluN2A (Rattus norvegicus, UniProt P35439+Q00959, L135Q); experiment: Patch clamp in HEK293 cells expressing mutant GluN1 L135Q/GluN2A; format: cell-based
T2 construct: expressed in transfected cells; host or cells: HEK293
Method: as §1

T2 sequence (Q00959 23-1464, other chains not shown): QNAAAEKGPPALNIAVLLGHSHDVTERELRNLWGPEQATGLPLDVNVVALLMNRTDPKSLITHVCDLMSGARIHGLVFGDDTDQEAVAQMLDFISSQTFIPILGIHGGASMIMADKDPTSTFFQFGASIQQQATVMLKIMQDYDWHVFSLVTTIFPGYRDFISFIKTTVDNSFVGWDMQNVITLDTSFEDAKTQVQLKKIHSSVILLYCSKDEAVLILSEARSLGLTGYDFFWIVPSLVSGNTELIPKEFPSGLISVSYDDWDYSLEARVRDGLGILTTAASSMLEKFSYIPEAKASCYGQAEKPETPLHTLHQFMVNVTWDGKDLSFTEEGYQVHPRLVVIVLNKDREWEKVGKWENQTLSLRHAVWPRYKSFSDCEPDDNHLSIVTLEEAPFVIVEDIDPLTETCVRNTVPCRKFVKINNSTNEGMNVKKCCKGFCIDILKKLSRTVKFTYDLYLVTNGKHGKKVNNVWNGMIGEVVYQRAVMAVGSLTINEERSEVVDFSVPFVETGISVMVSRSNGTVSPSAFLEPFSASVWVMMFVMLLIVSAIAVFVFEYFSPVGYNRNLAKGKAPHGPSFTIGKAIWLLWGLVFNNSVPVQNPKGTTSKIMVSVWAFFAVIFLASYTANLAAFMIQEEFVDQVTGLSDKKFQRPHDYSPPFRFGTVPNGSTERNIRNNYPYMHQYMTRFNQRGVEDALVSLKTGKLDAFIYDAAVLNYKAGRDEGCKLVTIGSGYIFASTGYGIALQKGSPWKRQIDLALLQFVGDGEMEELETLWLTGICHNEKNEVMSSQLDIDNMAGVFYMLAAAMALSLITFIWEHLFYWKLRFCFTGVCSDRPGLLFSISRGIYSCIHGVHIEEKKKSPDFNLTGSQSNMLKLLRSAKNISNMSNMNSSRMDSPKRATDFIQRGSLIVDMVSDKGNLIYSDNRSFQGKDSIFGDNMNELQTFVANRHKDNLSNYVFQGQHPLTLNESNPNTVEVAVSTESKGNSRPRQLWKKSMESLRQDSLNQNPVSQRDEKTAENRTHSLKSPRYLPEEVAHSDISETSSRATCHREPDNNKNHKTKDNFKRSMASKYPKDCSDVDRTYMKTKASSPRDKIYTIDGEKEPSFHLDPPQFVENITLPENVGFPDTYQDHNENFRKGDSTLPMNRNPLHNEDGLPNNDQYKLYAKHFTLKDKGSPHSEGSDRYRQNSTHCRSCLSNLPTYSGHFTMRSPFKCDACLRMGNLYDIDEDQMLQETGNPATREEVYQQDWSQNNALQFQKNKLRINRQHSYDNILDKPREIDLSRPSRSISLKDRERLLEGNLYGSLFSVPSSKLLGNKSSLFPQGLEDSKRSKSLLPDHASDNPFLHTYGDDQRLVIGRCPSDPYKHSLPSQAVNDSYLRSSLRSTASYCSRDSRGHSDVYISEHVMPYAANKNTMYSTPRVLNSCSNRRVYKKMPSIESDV
T1 sequence (Q00959 23-1464 P79A, other chains not shown): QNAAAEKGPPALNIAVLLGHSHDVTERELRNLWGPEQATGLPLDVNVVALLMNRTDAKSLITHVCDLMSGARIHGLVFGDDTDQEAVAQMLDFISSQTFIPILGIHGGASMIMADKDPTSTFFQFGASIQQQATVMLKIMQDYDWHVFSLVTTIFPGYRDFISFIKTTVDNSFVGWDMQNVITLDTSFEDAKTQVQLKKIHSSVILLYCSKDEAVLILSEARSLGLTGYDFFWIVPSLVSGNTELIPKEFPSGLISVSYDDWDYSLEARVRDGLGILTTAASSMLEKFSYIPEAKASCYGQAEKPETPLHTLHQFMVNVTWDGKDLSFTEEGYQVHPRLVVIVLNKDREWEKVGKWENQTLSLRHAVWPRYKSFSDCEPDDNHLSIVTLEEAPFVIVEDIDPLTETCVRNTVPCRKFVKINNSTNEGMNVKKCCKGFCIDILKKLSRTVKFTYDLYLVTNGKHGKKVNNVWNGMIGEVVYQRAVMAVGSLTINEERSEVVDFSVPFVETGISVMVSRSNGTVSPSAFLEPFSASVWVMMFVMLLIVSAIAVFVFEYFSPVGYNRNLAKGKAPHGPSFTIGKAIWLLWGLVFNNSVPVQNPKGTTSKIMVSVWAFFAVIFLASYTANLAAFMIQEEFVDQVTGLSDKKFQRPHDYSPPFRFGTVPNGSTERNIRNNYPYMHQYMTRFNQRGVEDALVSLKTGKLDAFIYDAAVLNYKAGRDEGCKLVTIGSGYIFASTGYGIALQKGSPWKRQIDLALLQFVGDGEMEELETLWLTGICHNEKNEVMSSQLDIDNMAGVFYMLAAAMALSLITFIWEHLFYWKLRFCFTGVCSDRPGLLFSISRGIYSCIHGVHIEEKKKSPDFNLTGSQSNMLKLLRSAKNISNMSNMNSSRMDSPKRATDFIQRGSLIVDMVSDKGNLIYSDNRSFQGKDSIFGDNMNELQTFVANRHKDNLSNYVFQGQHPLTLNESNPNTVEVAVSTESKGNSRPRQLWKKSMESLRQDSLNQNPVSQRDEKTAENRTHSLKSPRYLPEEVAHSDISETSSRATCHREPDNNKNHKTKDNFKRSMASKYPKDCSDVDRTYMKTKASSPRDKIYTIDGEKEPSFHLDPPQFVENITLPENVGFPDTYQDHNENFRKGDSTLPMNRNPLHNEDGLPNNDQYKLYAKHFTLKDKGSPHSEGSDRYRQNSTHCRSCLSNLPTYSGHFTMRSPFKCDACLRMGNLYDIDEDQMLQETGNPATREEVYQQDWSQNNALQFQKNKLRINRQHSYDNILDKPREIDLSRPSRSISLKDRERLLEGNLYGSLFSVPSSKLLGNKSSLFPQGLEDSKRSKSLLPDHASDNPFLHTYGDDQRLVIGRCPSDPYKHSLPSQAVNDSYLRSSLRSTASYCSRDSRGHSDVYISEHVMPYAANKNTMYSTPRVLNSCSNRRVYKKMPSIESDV

Which results are given for `CCOc1cc(Cl)c(Cl)c(/C=N/NC(=O)c2ccccc2Br)c1O` [Npam43, (E)-2-bromo-N′-(2,3-dichloro-5-ethoxy-6-hydroxybenzylidene)benzohydrazide]?
Infarct size, long term evaluation point ([1]; 7 days, MRI scanning, FIG. 25): reduces infarct size; Infarct volume ([1]; MCAo rats, compared to vehicle/saline, 24 h post ischemia (FIG. 24)): reduces infarct volume; Relative potentiation (GluN1/GluN2A^P79A; Table 3): 99.3 ± 2.8%; Net Difference potentiation (GluN1/GluN2A^P79A; normalized to wild-type): −52.5 ± 0.20%; Relative potentiation (GluN1^L135Q/GluN2A; Table 3): 47.1 ± 2.8%; Net Difference potentiation (GluN1^L135Q/GluN2A; normalized to wild-type): −77.5±2.12%
